The assay relates to BALB/c mice. Briefly: Passive cutaneous anaphylaxis (PCA) in mice: skin edema. The assay is classed as in vivo. The note with it: doses as low as 3 mg/kg, two oral administrations. The procedure: LOU064 was tested in a murine PCA model. The model used BALB/c mice aged 8-10 weeks of age. For passive sensitization with hapten-specific IgE, mice under isoflurane anesthesia were given an intradermal injection of 20 μl anti-DNP IgE in saline into the right ear and 20 μl of saline into the left ear. For FccR-specific PCA, mice were given a low dose of 3 ng anti-DNP IgE. For maximal PCA mice were given a high dose of 25 ng anti-DNP IgE. LOU064 was administered p.o. in a volume of 5 ml/kg body weight. A first dose was administered 4 hours after sensitization on the evening before challenge. The next morning, 2 hours prior to hapten challenge, mice were given a second oral dose of LOU064.
Mice were challenged with hapten 2 hours after the second dose by placing them into a heated chamber. Animals were then injected i.v. with 100 μg of the hapten DNP-HSA (dinitrophenyl-human serum albumin) in 200 μl of 2% Evans blue diluted in PBS. The mice were then returned to their cage for exactly 30 minutes. Thirty minutes later, animals were then anesthetized with isoflurane and bled retro-orbitally using EDTA coated blood collection tubes for analysis of compound exposure. […] Twenty-four hours later 80 μl of formalin solution were transferred to a clear flat bottom 96 well plate and the optical absorption was read at 620 nm. […] Statistical significance was determined by ANOVA. […]

The structures appear in SMILES notation.

As to `C=CC(=O)N(C)CCOc1c(N)ncnc1-c1cc(F)cc(NC(=O)c2ccc(C3CC3)cc2F)c1C` [LOU064, N-(3-(6-amino-5-(2-(N-methylacrylamido)ethoxy)pyrimidin-4-yl)-5-fluoro-2-methylphenyl)-4-cyclopropyl-2-fluorobenzamide], the “Inhibition of the anaphylactic response (PCA)” value is “near complete inhibition”.

Source of the values: US20250032488A1, “METHODS OF TREATMENT USING LOU064” (NOVARTIS AG, priority 2021, published 2025).
